Where “and” joins values, the source holds several entries; their conditions need not be identical. Equal values may be shown once. ± gives the expanded uncertainty stated by the source.
What was measured:
[1] = Liquid; for vapor or sublimation pressure: Closed cell (Static) method; for mass density: 101.33 kPa, Vibrating tube method
[2] = refractive index (Na D-line) (dimensionless); conditions: 293.15 K; 101.33 kPa; Liquid; Standard Abbe refractometry

SMILES | vapor or sublimation pressure ([1]; 293.18 K) | vapor or sublimation pressure ([1]; 303.16 K) | vapor or sublimation pressure ([1]; 308.15 K) | mass density ([1]; 313.15 K) | vapor or sublimation pressure ([1]; 313.16 K) | refractive index [2] | vapor or sublimation pressure ([1]; 298.18 K) | vapor or sublimation pressure ([1]; 303.17 K) | vapor or sublimation pressure ([1]; 298.19 K) | vapor or sublimation pressure ([1]; 303.18 K) | further results
CC(C)O [propan-2-ol] | 4.2 ± 0.3 kPa | 7.9 ± 0.3 kPa | 10.5 ± 0.3 kPa | 768 ± 1 kg/m3 | 14 ± 0.3 kPa | 1.377 ± 0.001 |  |  |  |  | vapor or sublimation pressure ([1]; 293.16 K): 4.2 ± 0.3 kPa; vapor or sublimation pressure ([1]; 298.17 K): 5.8 ± 0.3 kPa; vapor or sublimation pressure ([1]; 303.15 K): 7.8 ± 0.3 kPa; vapor or sublimation pressure ([1]; 313.14 K): 13.9 ± 0.3 kPa
C=CCCCC [hex-1-ene] | 19.9 ± 0.3 kPa and 20 ± 0.3 kPa | 30.5 ± 0.3 kPa |  | 655 ± 1 kg/m3 | 45.1 ± 0.3 kPa | 1.388 ± 0.001 | 24.8 ± 0.3 kPa | 30.6 ± 0.3 kPa |  |  | vapor or sublimation pressure ([1]; 308.16 K): 37.2 ± 0.3 kPa; vapor or sublimation pressure ([1]; 313.15 K): 45.1 ± 0.3 kPa
CCCCC [pentane] | 56.6 ± 0.4 kPa |  |  |  |  | 1.358 ± 0.001 | 68.5 ± 0.4 kPa | 82.2 ± 0.4 kPa | 68.5 ± 0.4 kPa | 82.2 ± 0.4 kPa | vapor or sublimation pressure ([1]; 288.18 K): 46.5 ± 0.3 kPa; mass density ([1]; 293.15 K): 626 ± 1 kg/m3; vapor or sublimation pressure ([1]; 293.2 K): 56.6 ± 0.4 kPa; vapor or sublimation pressure ([1]; 308.17 K): 97.9 ± 0.4 kPa
C1CCCCC1 [cyclohexane] |  | 16.4 ± 0.3 kPa | 20.3 ± 0.3 kPa |  |  | 1.426 ± 0.001 | 13.4 ± 0.3 kPa |  | 13.1 ± 0.3 kPa | 16.4 ± 0.3 kPa | vapor or sublimation pressure ([1]; 293.17 K): 10.4 ± 0.3 kPa; vapor or sublimation pressure ([1]; 293.21 K): 10.6 ± 0.3 kPa; mass density ([1]; 308.15 K): 765 ± 1 kg/m3; vapor or sublimation pressure ([1]; 313.17 K): 24.9 ± 0.3 kPa

— the NIST ThermoML archive (doi:10.1021/acs.jced.8b00765)
